These results are taken from patent publication US20240122912A1, “A NANOFORMULATION FOR GLIOMA TREATMENT AND PROCESS FOR ITS PREPARATION THEREOF” (COUNCIL OF SCIENTIFIC AND INDUSTRIAL RESEARCH, priority 2021, published 2024).

Data set [1] concerns orthotopic GL261 glioma. Description: Orthotopic glioma model: survivability and tumor lesions. Type of data set: in vivo, C57BL/6J mice. The conditions noted are these: 5 injections, sacrificed on 12th day; H8 8 mg/Kg. From the text: Further, to observe the orthotopic brain tumor growth inhibitory efficiency of presently described SR-targeting CH8, we checked survivability among brain tumor-bearing mice following 5 alternate dosing of various treatment groups. Herein, the intraperitoneal injections started on 4th day until 12th day (total 5 injections) since stereotactic-based inoculation of GL261 cells in brain. […] In another set of experiment, animals bearing brain in situ GL261 cells and having 5 injections of various treatments were sacrificed on 12th day to visualize the status of tumor lesions in full brains obtained from respective treatment groups. […] Clearly, the visual effect of respective treatments has reflected on overall survivability of treated mice.

Data set [2] relates to CHO, HEK293. Kind of data set: MTT cytotoxicity assay in non-cancer cells. Type of data set: cell-based. The conditions noted are these: same concentration ranges. (In general: Tetrazolium assays rely on reduction of a dye to a coloured formazan, in cell work by metabolically active cells.)

Take `O=C(CCCN1CCC(O)(c2ccc(Cl)cc2)CC1)c1ccc(F)cc1` [H8]: in data set [1], the “Tumor sites / lesions in isolated brains” value is “comparable effect on tumor sites”. In addition, the “Cytotoxic effects in non-cancer cells” value in data set [2] was “negligible”.
